The text below walks through data of patent publication US10183933B2, “Isoindolinone inhibitors of phosphatidylinositol 3-kinase” (Vertex Pharmaceuticals Incorporated, priority 2009, dated 2019).

For orientation: Ki means a measure of affinity in units of concentration, obtained from inhibition or displacement. Read a low Ki as higher affinity.

PI3K-gamma, sequence (P48736 whole entry, species assumed): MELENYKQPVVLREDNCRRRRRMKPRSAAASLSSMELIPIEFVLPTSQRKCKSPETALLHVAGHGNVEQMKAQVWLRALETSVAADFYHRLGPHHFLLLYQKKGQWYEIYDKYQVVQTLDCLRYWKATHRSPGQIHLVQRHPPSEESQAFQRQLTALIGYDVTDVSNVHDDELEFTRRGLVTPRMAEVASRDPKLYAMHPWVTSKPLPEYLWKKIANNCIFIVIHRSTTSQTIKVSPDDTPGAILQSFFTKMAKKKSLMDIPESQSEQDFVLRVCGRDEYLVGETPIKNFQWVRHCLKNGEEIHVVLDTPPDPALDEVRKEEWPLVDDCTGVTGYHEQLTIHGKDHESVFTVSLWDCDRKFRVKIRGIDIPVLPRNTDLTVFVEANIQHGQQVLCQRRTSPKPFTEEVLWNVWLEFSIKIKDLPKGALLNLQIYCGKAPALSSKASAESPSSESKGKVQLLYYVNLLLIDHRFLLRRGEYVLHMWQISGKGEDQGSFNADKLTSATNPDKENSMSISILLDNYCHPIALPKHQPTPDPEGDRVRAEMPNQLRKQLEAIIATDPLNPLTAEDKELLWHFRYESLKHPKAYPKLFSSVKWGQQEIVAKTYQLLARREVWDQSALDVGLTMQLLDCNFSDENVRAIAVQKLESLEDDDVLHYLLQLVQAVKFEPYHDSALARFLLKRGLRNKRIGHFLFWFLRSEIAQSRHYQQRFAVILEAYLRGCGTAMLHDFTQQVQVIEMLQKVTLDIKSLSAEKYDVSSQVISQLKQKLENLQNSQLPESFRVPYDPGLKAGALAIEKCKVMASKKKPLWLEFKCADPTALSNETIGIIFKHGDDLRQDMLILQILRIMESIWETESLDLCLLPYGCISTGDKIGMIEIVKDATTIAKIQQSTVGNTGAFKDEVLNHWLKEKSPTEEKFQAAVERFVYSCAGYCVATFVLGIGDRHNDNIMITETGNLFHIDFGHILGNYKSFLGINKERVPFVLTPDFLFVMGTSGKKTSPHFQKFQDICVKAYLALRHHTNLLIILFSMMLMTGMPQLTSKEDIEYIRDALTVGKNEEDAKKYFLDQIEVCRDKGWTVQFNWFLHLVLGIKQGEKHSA

The first assay has as its target PI3K-gamma (Homo sapiens, UniProt P48736). Briefly: PI3K inhibition assay (33P-ATP, PI(4,5)P2 substrate), PI3K-gamma. Note: 2 nM enzyme. Format: biochemical.
Conditions: not given
How it is done:
One test well also contained 1.5 μL of DMSO with no compound. […] Using a Titertek Multidrop, 50 μL of Reaction Mix [100 mM HEPES pH 7.5, 50 mM NaCl, 10 mM DTT, 0.2 mg/mL BSA, 60 μM phosphatidylinositol(4,5)bisphosphate diC16 (PI(4,5)P2; Avanti Polar Lipids, Cat. No. 840046P) and PI3K isoform of interest (see Table 3 for isoform concentrations)] was added to each well. To initiate the reaction, 50 μL of ATP Mix [20 mM MgCl2, 6 μM ATP (100 μCi/μmole ^33P-ATP)] was added each well, followed by incubating the wells for 30 min. at 25° C. Final concentrations in each well were 50 mM HEPES 7.5, 10 mM MgCl2, 25 mM NaCl, 5 mM DTT, 0.1 mg/mL BSA, 30 μM PI(4,5)P2, 3 μM ATP, and the PI3K isoform of interest (see Table 2). Final compound concentrations in each well ranged from 10 μM to 1 nM.
After incubation, the reactions in each well were quenched by addition of 50 μL of stop solution [30% TCA/Water, 10 mM ATP]. […] 50 μL of scintillation fluid was added to each well and the plate read on a Perkin-Elmer TopCount™ NXT liquid scintillation counter to obtain ^33P-counts representing inhibition values.
The value for the background well was subtracted from the value obtained for each test well and the data were fit to the competitive tight binding Ki equation described by Morrison and Stone, Comments Mol. Cell Biophys.
Regarding `Cc1cc(-c2cncc(OCC(F)F)c2)nc2c1C(=O)N(c1ccn(C3CCOC3)n1)C2` (single isomer, unassigned) [Compound 863], the Ki was less than 0.1 µM.

On to `Cc1cc(-c2cnc(C)c(OCC(F)F)c2)nc2c1C(=O)N(c1ccn(C3CCOC3)n1)C2` (single isomer, unassigned) [Compound 864], for which the Ki was less than 0.1 µM.

`Cc1cc(-c2cncc(S(=O)(=O)N(C)C)c2)nc2c1C(=O)N(c1ccn(C3CCOC3)n1)C2` (single isomer, unassigned) [Compound 954] had a Ki of less than 0.1 µM.

In turn, `COc1cc(-c2ccc3c(c2)CN(c2cn[nH]c2)C3=O)cnc1OC` [Compound 13] returned a Ki of 0.1 to 0.49 µM.

Regarding `N#CCn1cc(N2Cc3cc(-c4cncc(S(N)(=O)=O)c4)ccc3C2=O)cn1` [Compound 76], the inhibition constant Ki was in the range of 0.1 to 0.49 µM.

On to `COc1cc(-c2ccc3c(n2)CN(c2ccc(N(C)CCN(C)C)nc2)C3=O)cnc1OC` [Compound 195], for which the Ki is 0.5 to 2.5 µM.

`COc1cc(-c2ccc3c(n2)C(N2CCCN(C)CC2)N(c2cnn(CC(F)(F)F)c2)C3=O)cnc1OC` (centres unmarked) [Compound 663] yielded a Ki of 0.5 to 2.5 µM.

`COc1cc(-c2ccc3c(n2)[C@@H](N2CCOCC2)N(c2cnn(CC(F)(F)F)c2)C3=O)cnc1OC` [Compound 665] displayed a Ki of 0.5 to 2.5 µM.

In turn, `COc1cncc(-c2cc(C)c3c(n2)C(OC)N(c2cc[nH]n2)C3=O)c1` (centres unmarked) [Compound 759] gave a Ki of 0.5 to 2.5 µM.

In turn, `COc1cncc(-c2cc(C)c3c(n2)C(C)(C)N(c2ccn(C[C@H](C)O)n2)C3=O)c1` [Compound 872] gave a Ki of 0.1 to 0.49 µM.

In turn, `CO/N=C/c1cncc(-c2cc(C)c3c(n2)C(C)(C)N(c2cnn(CC(F)(F)F)c2)C3=O)c1` [Compound 883] displayed a Ki of less than 0.1 µM.

Consider `Cc1cc(-c2cncc([S@+](C)[O-])c2)nc2c1C(=O)N(c1cnn(CC(F)(F)F)c1)C2(C)C` [Compound 967], for which the Ki was less than 0.1 µM.

On to `Cc1cc(-c2cncc([S@@+](C)[O-])c2)nc2c1C(=O)N(c1cnn(CC(F)(F)F)c1)C2(C)C` [Compound 968], for which the inhibition constant (Ki) was less than 0.1 µM.

The next assay has as its system activated microglia. Kind of assay: Microglia activation assay (LPS-treated mice, Iba1 IHC of brain). The settings on record: 10 mg/kg b.i.d. oral, LPS 0.5 mg/kg i.p., female C57Bl/6J mice. Format: in vivo.
Method: Female C57Bl/6J mice (7 weeks old) were purchased from Jackson Laboratory (Maine, US). Animals were acclimated for a week at standard laboratory conditions (12 hrs light cycles) with free access to rodent chow and water. All procedures were in accordance with the National Institute of Health Guidelines for the care and Use of Laboratory Animals and were approved by IACUCC. The endotoxin Lipopolysaccharide (LPS) (E. coli 011:B4, cat #437627) was purchased from Calbiochem. LPS was dissolved in PBS buffer at a concentration of 0.05 mg/ml and stored in frozen aliquots. At the start of the study, mice received an intraperitoneal (i.p.) injection of LPS (0.5 mg/kg) for three consecutive days. Therapeutic treatment with VRT compounds was started together with the 2nd LPS administration and maintained throughout the study. Compound was dosed twice a day orally by gavage for a total of 4 doses. 24 h following the last LPS injection, and 2 hrs following the last VRT dose, animals were sacrificed by CO2 asphyxiation. […]
Digital images were captured using the Aperio ScanScope Slide Scanner (Aperio Technologies, Vista, Calif.). Images were captured at 20× optical magnification, and analyzed using the software Definiens Developer XD. […] Compound efficacy was calculated as percent decrease in number of activated microglia relative to vehicle control.
As to `Cc1cc(-c2cncc(OC(F)F)c2)nc2c1C(=O)N(c1cnn(CC(F)(F)F)c1)C2` [Compound 271], the “percent decrease in number of activated microglia relative to vehicle control” value amounted to 39%.
